Data published in patent US4346087A, “Antibacterial surface active agent containing azaalkenelactam” (priority 1979, dated 1982).
Converted amounts (≈) assume the structure as drawn. Read-outs that look alike come from different tables or passages of the source.

What was measured:
Format in all cases: cell-based
[1] = test system: Escherichia coli NIHJ; test: MIC against Escherichia coli NIHJ
Description: (§1) Below are described the antibacterial activities of the compounds in the compositions according to this invention.
(§2) The testing method complied with the standard method of Japan Sociaty of Chemotherapy.

[2] = test system: Desulfovibrio desulfuricans IFO 13699; test: MIC against Desulfovibrio desulfuricans
Description: as §1, §2

[3] = test system: Staphylococcus aureus FDA 209P; test: MIC against Staphylococcus aureus FDA 209P
Description: as §1, §2

[4] = Desulfovibrio desulfuricans, IFO13699, 24 h
[5] = Staphylococcus aureus, FDA209P, 24 h
[6] = Escherichia coli, Table 1, azaalkenelactams, heart infusion agar, 37° C., 24 hours, read-out: MIC
[7] = Desulfovibrio desulfuricans, IFO13699, Table 1, azaalkenelactams, heart infusion agar, 37° C., 24 hours, read-out: MIC
[8] = Staphylococcus aureus, FDA209P, Table 1, azaalkenelactams, heart infusion agar, 37° C., 24 hours, read-out: MIC
[9] = Table 2, derivatives having a carboxylate radical, heart infusion agar, 37° C., 24 hours
[10] = Escherichia coli, Table 2, derivatives having a carboxylate radical, heart infusion agar, 37° C., 24 hours, read-out: MIC
[11] = Staphylococcus aureus, FDA209P, Table 2, derivatives having a carboxylate radical, heart infusion agar, 37° C., 24 hours, read-out: MIC

Compound	MIC ([1]; Escherichia coli, 24 h)	MIC [2, 4]	MIC [3, 5]	also measured
CCCCCCCC(=O)NCCN1CCN=C(C)CC1=O [Example 23, 4-octamidoethyl-7-methyl-3,6-dihydro-2H-1,4-diazepin-5-one]	25 µg/mL (≈ 84.6 µM)	50 µg/mL (≈ 169 µM)	25 µg/mL (≈ 84.6 µM)	
CCCCCCCCCCCCCCC(O)CNCCN1CC[N+](CC(=O)[O-])=CCC(C)C1=O (stereo not drawn) [4-(2-hydroxyhexadecyl)aminoethyl-6-methyl-4-aza-1-azoniacyclooct-8-en-5-one-1-acetate]	100 µg/mL (≈ 208 µM)	25 µg/mL (≈ 51.9 µM)	25 µg/mL (≈ 51.9 µM)	
CCCCCCCCCCCC(=O)OCCN1CCN=CC(C)C1=O (stereo not drawn) [Example 47, 4-lauroyloxyethyl-6-methyl-3,6-dihydro-2H-1,4-diazepin-5-one]				MIC [1, 6]: 200 µg/mL (≈ 567 µM); MIC [2, 7]: 50 µg/mL (≈ 142 µM); MIC [3, 8]: 50 µg/mL (≈ 142 µM)
1-behenoyloxypropyl-4-methyl-1-aza-5-azoniacyclooct-4-en-2-one-5-acetate				MIC [1, 9]: 3200 µg/mL; MIC [2]: 50 µg/mL; MIC [3]: 100 µg/mL
CCCCCCCCCCCC(=O)OCCN1CCN=C(C)CC1=O [Example 12, 4-lauroyloxyethyl-7-methyl-3,6-dihydro-2H-1,4-diazepin-5-one]		12.5 µg/mL (≈ 35.5 µM)	100 µg/mL (≈ 284 µM)	MIC [1, 6]: 1600 µg/mL (≈ 4540 µM)
CCCCCCCCCCCCC(O)CN1CCC[N+](CC(=O)[O-])=C(C)CC1=O (stereo not drawn) [1-(2-hydroxy)tetradecyl-4-methyl-1-aza-5-azoniacyclooct-4-en-2-one-5-acetate]	100 µg/mL (≈ 244 µM)	6.25 µg/mL (≈ 15.2 µM)	25 µg/mL (≈ 60.9 µM)	
CC1=[N+](CC(=O)[O-])CCN(CC(C)OCC(C)OCC(C)OCc2ccc(C)cc2)C(=O)C1 (stereo not drawn) [4-methylbenzylpoly(2 moles)oxypropyleneoxypropyl-7-methyl-1-azonia-4-azacyclohept-7-en-5-one-1-acetate]	400 µg/mL (≈ 865 µM)	50 µg/mL (≈ 108 µM)	50 µg/mL (≈ 108 µM)	
CCCCCCCCCCCCNC(=O)CCC [Laurylbutylamide, reference compound]		400 µg/mL (≈ 1570 µM)		MIC [1, 6]: ≥ 10000 µg/mL; MIC [3, 8]: ≥ 10000 µg/mL
CCCCCCCCCc1ccc(OCC(O)CNCCNCCNCCN2CC[N+](CC(=O)[O-])=C(C)CC2=O)cc1 (stereo not drawn) [4-nonylphenoxy(2-hydroxy)propylaminoethylaminoethylaminoethyl-7-methyl-1-azonia-4-azacyclohept-7-en-5-one-1-acetate]		50 µg/mL (≈ 84.8 µM)	100 µg/mL (≈ 170 µM)	MIC [1, 10]: 800 µg/mL (≈ 1360 µM)
CC1=NCCN(CCNC(=O)CCCCCCCCCCCCCCC(C)C)C(=O)C1 [Example 11, 4-isostearamidoethyl-7-methyl-3,6-dihydro-2H-1,4-diazepin-5-one]		6.25 µg/mL (≈ 14.3 µM)	100 µg/mL (≈ 230 µM)	MIC [1, 6]: 1600 µg/mL (≈ 3670 µM)
CCCCCC[C@@H](O)C/C=C\CCCCCCCC(=O)NCCN1CCN=CC(C)(C)C1=O [Example 64, 4-ricinolamidoethyl-6,6-dimethyl-3-hydro-2H-1,4-diazepin-5-one]	400 µg/mL (≈ 863 µM)	25 µg/mL (≈ 53.9 µM)	200 µg/mL (≈ 431 µM)	
CCCCCCCCCCCC(=O)NCCN1CC[N+](CC(=O)[O-])=CC(C)C1=O (stereo not drawn) [4-lauramidoethyl-6-methyl-1-azonia-4-azacyclohept-7-en-5-one-1-acetate]	50 µg/mL (≈ 122 µM)	6.25 µg/mL (≈ 15.3 µM)	12.5 µg/mL (≈ 30.5 µM)	
CCCCCCCCCCCCCCCCCCNCCCN1CCCN=C(C)CC1=O [Example 37, 1-octadecylaminopropyl-4-methyl-3,6,7,8-tetrahydro-1,5-diazocin-2-one]				MIC [1]: 25 µg/mL (≈ 55.6 µM); MIC [2]: 6.25 µg/mL (≈ 13.9 µM); MIC [3]: 6.25 µg/mL (≈ 13.9 µM)
CCCCCCCCCCCCNCCCN1CCCN=C(C)CC1=O [Example 36, 1-dodecylaminopropyl-4-methyl-3,6,7,8-tetrahydro-1,5-diazocin-2-one]	50 µg/mL (≈ 137 µM)	25 µg/mL (≈ 68.4 µM)	12.5 µg/mL (≈ 34.2 µM)	
4-behenoyloxypropyl-6-methyl-4aza-1-azoniacyclooct-8-en-5-one-1-acetate				MIC [1, 9]: 800 µg/mL; MIC [2]: 25 µg/mL; MIC [3]: 200 µg/mL
CCCCCCCCOCCCN1CCN=CC(C)(C)C1=O [Example 63, 4-octoxypropyl-6,6-dimethyl-3-hydro-2H-1,4-diazepin-5-one]	400 µg/mL (≈ 1290 µM)	50 µg/mL (≈ 161 µM)	100 µg/mL (≈ 322 µM)	

Compound	MIC ([1]; Escherichia coli, 24 h)	MIC [2, 4]	MIC [3, 5]	also measured
CCCCCCCCCc1ccc(OCCOCCN2CCC[N+](CC(=O)[O-])=C(C)CC2=O)cc1 [1-nonylphenylpoly(2 moles)oxyethyleneoxyethyl-4-methyl-1-aza-5-azoniacyclooct-4-en-2-one-5-acetate]	200 µg/mL (≈ 409 µM)	25 µg/mL (≈ 51.2 µM)	12.5 µg/mL (≈ 25.6 µM)	
CCCCCCCCCCCCCCNCCN1CC[N+](C(C)C(=O)[O-])=CC(C)(C)C1=O (stereo not drawn) [4-tetradecylaminoethyl-6,6-dimethyl-1-azonia-4-azacyclohept-7-en-5-one-1-propionate]	100 µg/mL (≈ 221 µM)	6.25 µg/mL (≈ 13.8 µM)	6.25 µg/mL (≈ 13.8 µM)	
CCCCCCCCC=CCCCCCCCCN1CCCN=C(C)CC1=O [Example 4, 1-(9-octadecenyl)-4-methyl-3,6,7,8-tetrahydro-1,5-diazocin-2-one]		12.5 µg/mL (≈ 32 µM)	25 µg/mL (≈ 64 µM)	MIC [1, 6]: 800 µg/mL (≈ 2050 µM)
CCCCCCCCCCCCOCCNCCN1CC[N+](CC(=O)[O-])=C(C)CC1=O [4-dodecoxyaminoethyl-7-methyl-1-azonia-4-azacyclohept-7-en-5-one-1-acetate]	200 µg/mL (≈ 455 µM)	25 µg/mL (≈ 56.9 µM)	25 µg/mL (≈ 56.9 µM)	
CCCCCCCCCCCC[N+](C)(C)CC(=O)[O-] [Lauryldimethylbetaine, lauryldimethylbetaine, reference compound]				MIC [1, 10]: ≥ 10000 µg/mL; MIC ([2]; Desulfovibrio desulfuricans, IFO13699, Table 2, derivatives having a carboxylate radical, heart infusion agar, 37° C., 24 hours, read-out: MIC): 1600 µg/mL (≈ 5890 µM); MIC [3, 11]: ≥ 10000 µg/mL
CCCCCCCCCCCCCCCCCCCCC(O)CNCCNCCN1CCCN=C(C)CC1=O (stereo not drawn) [Example 30, 1-(2-hydroxy)docosylaminoethylaminoethyl-4-methyl-3,6,7,8-tetrahydro-1,5-diazocin-2-one]	25 µg/mL (≈ 45.4 µM)		12.5 µg/mL (≈ 22.7 µM)	MIC [2, 7]: 3.12 µg/mL (≈ 5.66 µM)
CCCCCCCC(=O)NCCN1CCN=CCCC1=O [Example 56, 4-octamidoethyl-2,3,6,7-tetrahydro-1,4-diazocin-5-one]	100 µg/mL (≈ 338 µM)	50 µg/mL (≈ 169 µM)	200 µg/mL (≈ 677 µM)	
CCCCCCCCCCCC(=O)NCCN1CCN=CC(C)C1=O (stereo not drawn) [Example 46, 4-lauramidoethyl-6-methyl-3,6-dihydro-2H-1,4-diazepin-5-one]	25 µg/mL (≈ 71.1 µM)	6.25 µg/mL (≈ 17.8 µM)	6.25 µg/mL (≈ 17.8 µM)	
4-methylbenzylpoly(2 moles)oxypropyleneoxypropyl-6-methyl-2,3,6,7-tetrahydro-1,4-diazocin-5-one [Example 67]				MIC [1]: 400 µg/mL; MIC [2]: 50 µg/mL; MIC [3]: 200 µg/mL
CCCCCCCCCCCCCCC(O)CNCCN1CCC[N+](CC(=O)[O-])=CC(C)(C)C1=O (stereo not drawn) [1-(2-hydroxyhexadecyl)aminoethyl-3,3-dimethyl-1-aza-5-azoniacyclooct-4-en-2-one-5-acetate]	100 µg/mL (≈ 202 µM)	12.5 µg/mL (≈ 25.2 µM)	12.5 µg/mL (≈ 25.2 µM)	
CCCCCCCC(=O)OCCN1CCN=C(C)CC1=O [Example 24, 4-octoyloxyethyl-7-methyl-3,6-dihydro-2H-1,4-diazepin-5-one]		25 µg/mL (≈ 84.3 µM)	200 µg/mL (≈ 675 µM)	MIC [1, 6]: 800 µg/mL (≈ 2700 µM)
CCCCCCCC(=O)NCCN1CC[N+](CC(=O)[O-])=C(C)CC1=O [4-octamidoethyl-7-methyl-1-azonia-4-azacyclohept-7-en-5-one-1-acetate]	100 µg/mL (≈ 283 µM)	50 µg/mL (≈ 141 µM)		MIC [3, 11]: 800 µg/mL (≈ 2260 µM)
CCCCCCCCOCCCN1CCN=C(C)CC1=O [Example 8, 4-octoxypropyl-7-methyl-3,6-dihydro-2H-1,4-diazepin-5-one]		50 µg/mL (≈ 169 µM)	50 µg/mL (≈ 169 µM)	MIC [1, 6]: 800 µg/mL (≈ 2700 µM)
CCCCCCCCCc1ccc(OCC(O)CNCCNCCNCCN2CCN=CC(C)C2=O)cc1 (stereo not drawn) [Example 52, 4-nonylphenoxy(2-hydroxy)propylaminoethylaminoethylaminoethyl-6-methyl-3,6-dihydro-2H-1,4-diazepin-5-one]		50 µg/mL (≈ 94 µM)		MIC [1, 6]: 100 µg/mL (≈ 188 µM); MIC [3, 8]: 100 µg/mL (≈ 188 µM)
CCCCCCCCOCCCN1CC[N+](CC(=O)[O-])=CC(C)(C)C1=O [4-oxtoxypropyl-6,6-dimethyl-1-azonia-4-azacyclohept-7-en-5-one-1-acetate]		50 µg/mL (≈ 136 µM)	200 µg/mL (≈ 543 µM)	MIC [1, 10]: 800 µg/mL (≈ 2170 µM)
